In patent publication US7592326B2, “Method for stimulating the immune, inflammatory or neuroprotective response” (priority 2004, dated 2009):

Test system: ERK
Assay: Western blot signaling in human DCs: ERK
Format: cell-based
Conditions: data not shown
Procedure: Human PBMC were isolated by Ficoll density gradient centrifugation from leukopacks supplied by the Department of Transfusion Medicine (Clinical Center, National Institute of Health, Bethesda, Md.). Monocytes were purified (>95%) from human PBMC with MACS CD14 monocyte isolation kit (Miltenyi Biotech Inc., Auburn, Calif.) according to the manufacturer's instruction. DCs were generated as described previously (Yang et al., 2001). In brief, DCs were generated by incubating purified monocytes at 2×10^5/ml in RPMI 1640 containing 10% FBS, 2 mM glutamine, 25 mM HEPES, 100 U/ml penicillin, 100 ug/ml streptomycin, 50 ng/ml recombinant human GM-CSF (PeproTech, Rocky Hill, N.J.), and 50 ng/ml recombinant human IL-4 (PeproTech) at 37° C. in a CO2 (5%) incubator for 7 days. On day 3 and 5 of the incubation, half of the culture medium was replaced with pre-warmed (37° C.) fresh GM-CSF- and IL-4-containing medium. On day 7, DCs were collected, washed three times with PBS, and serum-starved for 8 hours by incubating in serum-free RPMI-1640 containing GM-CSF and IL-4 (2×10^5/ml) at 37° C. in a CO2 (5%) incubator. Subsequently, DCs (2×10^6/sample) were incubated at 37° C. in the absence or presence of c-di-GMP or GMP (Sigma, St. Louis, Mo.) at concentrations specified for 5 or 30 minutes. […]

Structure (SMILES): Nc1nc(=O)c2ncn([C@@H]3OC4COP(=O)(O)O[C@H]5[C@@H](O)[C@H](n6cnc7c(=O)nc(N)[nH]c76)O[C@@H]5COP(=O)(O)OC4C3O)c2[nH]1 (stereo partly shown) [c-di-GMP, Bis(3′→5′)-cyclic diguanylic acid]
- activation of ERK: did not activate
